Entries after “also recorded” stand apart in the source; their conditions may differ. Read-outs that look alike come from different tables or passages of the source.
Tests used:
[1] = MTT cytotoxicity assay, 22Rv1 cells; type: cell-based; settings: human
Method: (§1) 22Rv1, PC-3, and LNCaP cell lines were cultured according to the manufacturer’s instructions in 10% FBS/RPMI media (Invitrogen, Carlsbad, CA, USA). Cells were continuously kept in culture for a maximum of 3 months and were routinely inspected microscopically for stable phenotypes and regularly checked for contamination with mycoplasma. Cell line authentication was performed by DSMZ (Braunschweig, Germany) using highly polymorphic short tandem repeat loci.
(§2) Docetaxel was used as a reference substance.

[2] = MTT cytotoxicity assay, PC-3 cells; type: cell-based; settings: human
Method: as §1, §2

[3] = DPPH-radical scavenger assay (cell-free); type: biochemical; settings: MeOH, 30 min
Method: The DPPH radical scavenging activities of the compounds were tested as described.
The compounds were dissolved in MeOH, and the solutions (120 µL) were dispensed into wells of a 96-well microplate. In all, 30 µL of the DPPH (Sigma-Aldrich, Steinheim, Germany) solution in MeOH (7.5 × 10^−3 M) was added to each well. The concentrations of the test compounds in the mixtures were 10 and 100 µM. The mixtures were shaken and left to stand for 30 min, and the absorbance of the resulting solutions was measured at 520 nm with a microplate reader MultiscanFC (ThermoScientific, Waltham, MA, USA). The radical scavenging activities of the compounds at 100 µM are presented as % relative to the control (MeOH alone), and the concentration scavenging 50% of the DPPH radical (EC50) was calculated for each compound.

[4] = MTT cytotoxicity assay, LNCaP cells; type: cell-based; settings: human
Method: as §1, §2

Neuro-2a cells [5] = assay: Paraquat-induced cell model of Parkinson's disease (viability, MTT); settings: 10 µM compound 1 h pretreatment, paraquat 500 µM, 24 h
Method: (§3) Neuroblastoma Neuro-2a line cells (1 × 10^4 cells/well) were treated with the test compounds at concentrations of 10 µM for 1 h, and then the neurotoxins at different concentrations were added to the neuroblastoma cell suspensions [40]. Rotenone (Sigma-Aldrich, USA) was used at 10 µM. Paraquat (Sigma-Aldrich, USA) was used at 500 µM. […] Cells incubated without neurotoxins and the test compounds and cells incubated with neurotoxins only were used as positive and negative controls, respectively. After 24 h of incubation, the cell viabilities were measured using the MTT method.

[6] = MTT cytotoxicity assay, Neuro-2a cells; settings: mouse
Method: (§4) Neuro-2a cells were cultured in DMEM medium containing 10% fetal bovine serum (Biolot, St. Petersburg, Russia) and 1% penicillin/streptomycin (Invitrogen, Carlsbad, CA, USA). Cells were incubated at 37 °C in a humidified atmosphere containing 5% (v/v) CO2 [43].
(§5) The in vitro cytotoxicities of the individual substances were evaluated using an MTT (3-(4,5-dimethylthiazol-2-yl)-2,5-diphenyltetrazolium bromide) assay, which was performed according to the manufacturer’s instructions (Sigma-Aldrich, St. Louis, MO, USA). […] Docetaxel was used as a reference substance.

Neuro-2a cells [7] = assay: Rotenone-induced cell model of Parkinson's disease (viability, MTT); settings: 10 µM compound 1 h pretreatment, rotenone 10 µM, 24 h
Method: as §3

[8] = cell-free, cited from earlier work; for IC50: read-out: DPPH Scavenger Activity IC50
Neuro-2a cells [9] = assay: 6-OHDA-induced cell model of Parkinson's disease (viability, MTT); type: cell-based, murine; settings: 10 µM compound 1 h pretreatment, 6-OHDA 50 µM, 24 h
Neuro-2a cells [10] = assay: ROS level in paraquat-treated Neuro-2a cells (H2DCF-DA); type: cell-based, murine; settings: 10 µM compound 1 h, then paraquat 500 µM 1 h; neurotoxin alone 148.4 ± 6.9
Method: Cell suspensions (1×10^4 cells/well) were incubated with solutions of the test compound (10 µM) for 1 h. Then, 6-hydroxydopamine solution (Sigma-Aldrich, 50 µM) or paraquat solution (Sigma-Aldrich, 500 µM) were added to each well. After 30 min (for 6-hydroxydopamine) or 1 h (for paraquat), 20 μL of 2,7-dichlorodihydrofluorescein diacetate (H2DCF-DA) solution (Molecular Probes, final concentration […]) was added to each well, and the microplate was incubated for an additional 10 min at 37 °C. The intensity of dichlorofluorescin fluorescence was measured at λex = 485 nm and λem = 518 nm. The results are presented as % relative to the control.

Staphylococcus aureus = test system: Staphylococcus aureus; parameters: method as in Du et al. (supplement ref 5); settings: ref Du et al. (supplement ref 5); cited from earlier work
[11] = biological target: T1, urease from Canavalia ensiformis (Canavalia ensiformis, UniProt P07374); assay: Cell-free urease inhibition assay (indophenol method); type: biochemical
T1 construct: purchased Sigma
T1 sequence (P07374 whole entry, looked up): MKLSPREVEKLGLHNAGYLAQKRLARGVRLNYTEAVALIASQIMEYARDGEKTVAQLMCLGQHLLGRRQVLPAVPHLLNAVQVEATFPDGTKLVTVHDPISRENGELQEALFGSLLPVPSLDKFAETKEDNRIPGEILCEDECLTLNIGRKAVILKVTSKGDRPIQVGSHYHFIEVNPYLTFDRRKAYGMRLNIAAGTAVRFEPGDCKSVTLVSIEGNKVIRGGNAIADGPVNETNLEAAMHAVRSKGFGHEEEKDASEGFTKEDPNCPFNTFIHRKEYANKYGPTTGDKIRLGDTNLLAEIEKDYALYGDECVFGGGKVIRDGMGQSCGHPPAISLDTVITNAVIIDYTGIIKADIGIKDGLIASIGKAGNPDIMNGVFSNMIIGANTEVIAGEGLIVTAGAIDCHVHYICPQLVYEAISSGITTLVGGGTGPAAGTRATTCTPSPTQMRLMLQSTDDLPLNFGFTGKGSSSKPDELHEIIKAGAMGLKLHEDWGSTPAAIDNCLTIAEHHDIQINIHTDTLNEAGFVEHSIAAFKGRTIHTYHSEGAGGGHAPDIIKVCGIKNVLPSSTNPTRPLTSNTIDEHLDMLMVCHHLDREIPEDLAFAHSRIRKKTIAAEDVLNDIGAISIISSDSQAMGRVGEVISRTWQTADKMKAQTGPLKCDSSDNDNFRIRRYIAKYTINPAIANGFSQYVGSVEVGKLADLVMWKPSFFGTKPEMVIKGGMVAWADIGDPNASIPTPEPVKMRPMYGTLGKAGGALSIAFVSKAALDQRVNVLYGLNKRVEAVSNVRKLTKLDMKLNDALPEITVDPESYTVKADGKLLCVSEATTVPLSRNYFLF

in vitro = settings: mouse
Method: as §4, §5

RAW264.7 cells = settings: murine macrophage RAW264.7; potency similar to that in Neuro-2a; cited from earlier work

| Structure (SMILES) | IC50 [3] [µM] | IC50 [4] [µM] | increase in viability of PQ-treated cells (Neuro-2a cells [5]) | IC50 [6] [µM] | increase in viability of rotenone-treated cells (Neuro-2a cells [7]) | IC50 [8] [µM] | increase in viability of 6-OHDA-treated cells (Neuro-2a cells [9]) | ROS Level, % of Control, Paraquat (PQ) (Neuro-2a cells [10]) | also measured |
| --- | --- | --- | --- | --- | --- | --- | --- | --- | --- |
| C=CC(C)(C)c1[nH]c2cc(CC=C(C)C)ccc2c1/C=C1\NC(=O)C(=O)NC1=O [Compound 7, neoechinulin] | 62.6 ± 1.1 | 38.9 | inactive | > 100 | not active | – | – | – | IC50 [1]: 49.9 µM; IC50 [2]: 63.8 µM |
| C=CC(C)(C)c1[nH]c2ccccc2c1C=C1NC(=O)C2(CC(C)C=CC2C=Cc2c(O)cc(CC=C(C)C)c(O)c2C=O)NC1=O (centres unmarked) [Compound 2, cryptoechinuline D] | – | – | did not show any cytoprotective effects | > 100 | did not show any cytoprotective effects | 23.6 | did not show any cytoprotective effects | – | DPPH Scavenger Activity IC50 [8]: strong |
| C=CC(C)(C)c1[nH]c2cc(CC=C(C)C)ccc2c1/C=c1\[nH]c(=O)c(=C)[nH]c1=O [Compound 5, neoechinulin C] | – | – | protected | 40.6 | not active | 31.1 | – | 97.4 ± 2.8 % of Control | – |
| CC(=O)O[C@@]12CO[C@@H]1C[C@H](O)[C@@]1(C)C(=O)[C@H](O)C3=C(C)[C@@H](OC(=O)[C@H](O)[C@@H](NC(=O)OC(C)(C)C)c4ccccc4)C[C@@](O)([C@@H](OC(=O)c4ccccc4)[C@H]21)C3(C)C [Docetaxel, reference compound] | – | 0.004 | – | – | – | – | – | – | – |
| C=CC(C)(C)c1[nH]c2c(CC=C(C)C)cc(CC=C(C)C)cc2c1C[C@@H]1NC(=O)[C@H](C)NC1=O [Compound 3, echinulin] | – | 25.9 | inactive | > 100 | inactive | 29.9 | – | 90.3 ± 2.2 % of Control | IC50 [1]: 63.2 µM; IC50 [2]: 41.7 µM; antibacterial activity against Staphylococcus aureus (Staphylococcus aureus): antibacterial activity; IC50 [11]: 29.8 µM |
| C=CC(C)(C)c1[nH]c2ccccc2c1/C=C1\NC(=O)C(=O)NC1=O [Compound 6, neoechinulin E] | – | – | – | – | significant increases | 46 | – | 94.1 ± 2.9 % of Control | IC50 (in vitro): > 100 µM |
| C=CC(C)(C)c1[nH]c2cc(CC=C(C)C)ccc2c1/C=C1\NC(=O)[C@]2(C[C@H](C)C=C[C@@H]2/C=C/c2c(O)cc(CC=C(C)C)c(O)c2C=O)NC1=O [Compound 1a, (+)-Cryptoechinuline B] | 122 ± 7.1 | – | neuroprotective activity | > 100 | neuroprotective activity; also recorded: significant increases | – | neuroprotective activity | – | DPPH Scavenger Activity IC50 [3]: weak; viability at 10 µM (Neuro-2a cells [9]; Mus musculus, N2a, read-out: increase in viability of 6-OHDA-treated cells): 40.7% |
| C=CC(C)(C)c1[nH]c2cc(CC=C(C)C)ccc2c1/C=C1\NC(=O)[C@@]2(C[C@@H](C)C=C[C@H]2/C=C/c2c(O)cc(CC=C(C)C)c(O)c2C=O)NC1=O [Compound 1b, (−)-Cryptoechinuline B] | 118 ± 4.7 | – | protected | > 100 | inactive | – | inactive | – | DPPH Scavenger Activity IC50 [3]: weak |
| C=CC(C)(C)c1[nH]c2ccccc2c1/C=c1\[nH]c(=O)c(=C)[nH]c1=O [Compound 4, neoechinulin B] | – | – | inactive | 50.9 | cytoprotective activity; also recorded: significant increases | 34 | – | 101.8 ± 7.6 % of Control | cytotoxicity against RAW264.7 cells (RAW264.7 cells): cytotoxic |
| NC(N)=S [Thiourea, reference compound] | – | – | – | – | – | – | – | – | IC50 ([11]; cell-free, 0.2-100.0 µM tested, pH 7.3-7.5, read-out: urease inhibition IC50): 23 µM |
